The compounds below were run on Aedes albopictus (assay: Protection time at 0.17 mg/cm2, human-bait technique). Conditions: 0.17mg/cm2, 0 min.
Type: in vivo
Procedure: To evaluate the protection time of derivatives, the PE % was measured with 100 μL of a 5% ethanol solution, corresponding to 0.17 mg/cm^2 of exposed skin, under the same laboratory conditions. Mosquito-exposed skin was treated with 100 μL of ethanol, as the negative hand control. For each volunteer (up to 8), the test was performed every hour, up to 8 h from the application. The protection time of DEET and Icaridin was measured under the same conditions. Since these trials were run in parallel with those aimed to profile the cytotoxicity of the compounds (paragraph 2.6), we interrupted the experiments for those compounds showing to have higher cytotoxicity than Icaridin and DEET as soon as the results were available. For this reason, the number of volunteers differs among the compounds.
The average time until protection which was higher than 95% protection time was considered for each compound. Moreover, for the compounds tested on at least three volunteers, the complete (100%) protection time was also estimated (SPSS 28.01.0) using the Kaplan–Meier survivor function procedure.[22]

In order of falling “Protection time PE%” value:
1. CC(C)=CCCC1(C)OCC(CO)O1 (mixture of isomers) [8a]  100%
2. CCCC1(CCC)OCC(C)(CO)CO1 [7b]  100%
3. CCCCCC1(CC)OCC(CO)O1 (mixture of isomers) [11a]  100%
4. CCCCC(CC)C1OCC(CO)O1 (mixture of isomers) [10a]  100%
5. CC(C)CC1(CC(C)C)OCC(CO)O1 (racemic) [17a]  100%
6. CCCCCCCCC1OCC(CO)O1 (mixture of isomers) [13a]  99.47%
7. CCCC1(CCC)OCC(CC)(CO)CO1 [7c]  99.35%
8. CCC1(CO)COC(CC(C)C)(CC(C)C)OC1 [17c]  98.72%
9. CCCCCCCC1OCC(C)(CO)CO1 (mixture of isomers) [9b]  97.02%

Same assay, conditions: 0.17mg/cm2, 1 h

In order of rising “Protection time PE%” value:
1. CCCC1(CCC)OCC(CC)(CO)CO1 [7c]  94.12%
2. CCC1(CO)COC(CC(C)C)(CC(C)C)OC1 [17c]  97.92%
3. CCCCCCCC1OCC(C)(CO)CO1 (mixture of isomers) [9b]  98.5%
4. CCCC1(CCC)OCC(C)(CO)CO1 [7b]  99.45%
5. CC(C)=CCCC1(C)OCC(CO)O1 (mixture of isomers) [8a]  100%
6. CCCCCC1(CC)OCC(CO)O1 (mixture of isomers) [11a]  100%
7. CCCCC(CC)C1OCC(CO)O1 (mixture of isomers) [10a]  100%
8. CC(C)CC1(CC(C)C)OCC(CO)O1 (racemic) [17a]  100%
9. CCCCCCCCC1OCC(CO)O1 (mixture of isomers) [13a]  100%

Same assay, conditions: 0.17mg/cm2, 2 h

In order of rising “Protection time PE%” value:
1. CCCC1(CCC)OCC(CC)(CO)CO1 [7c]  97.7%
2. CCC1(CO)COC(CC(C)C)(CC(C)C)OC1 [17c]  98.68%
3. CC(C)=CCCC1(C)OCC(CO)O1 (mixture of isomers) [8a]  100%
4. CCCC1(CCC)OCC(C)(CO)CO1 [7b]  100%
5. CCCCCC1(CC)OCC(CO)O1 (mixture of isomers) [11a]  100%
6. CCCCC(CC)C1OCC(CO)O1 (mixture of isomers) [10a]  100%
7. CC(C)CC1(CC(C)C)OCC(CO)O1 (racemic) [17a]  100%
8. CCCCCCCCC1OCC(CO)O1 (mixture of isomers) [13a]  100%

Same assay, conditions: 0.17mg/cm2, 3 h

In order of falling “Protection time PE%” value:
1. CCC1(CO)COC(CC(C)C)(CC(C)C)OC1 [17c]  100%
2. CC(C)=CCCC1(C)OCC(CO)O1 (mixture of isomers) [8a]  100%
3. CCCCCC1(CC)OCC(CO)O1 (mixture of isomers) [11a]  100%
4. CCCCC(CC)C1OCC(CO)O1 (mixture of isomers) [10a]  100%
5. CC(C)CC1(CC(C)C)OCC(CO)O1 (racemic) [17a]  100%
6. CCCCCCCCC1OCC(CO)O1 (mixture of isomers) [13a]  99.41%
7. CCCC1(CCC)OCC(C)(CO)CO1 [7b]  99.21%
8. CCCCCCCC1OCC(C)(CO)CO1 (mixture of isomers) [9b]  98.35%
9. CCCC1(CCC)OCC(CC)(CO)CO1 [7c]  98.08%

Same assay, conditions: 0.17mg/cm2, 4 h

In order of rising “Protection time PE%” value:
1. CC(C)CC1(CC(C)C)OCC(CO)O1 (racemic) [17a]  98%
2. CCCCCC1(CC)OCC(CO)O1 (mixture of isomers) [11a]  98.12%
3. CCC1(CO)COC(CC(C)C)(CC(C)C)OC1 [17c]  98.44%
4. CCCC1(CCC)OCC(C)(CO)CO1 [7b]  98.74%
5. CCCC1(CCC)OCC(CC)(CO)CO1 [7c]  99.4%
6. CC(C)=CCCC1(C)OCC(CO)O1 (mixture of isomers) [8a]  100%
7. CCCCCCCC1OCC(C)(CO)CO1 (mixture of isomers) [9b]  100%
8. CCCCC(CC)C1OCC(CO)O1 (mixture of isomers) [10a]  100%
9. CCCCCCCCC1OCC(CO)O1 (mixture of isomers) [13a]  100%

Same assay, conditions: 0.17mg/cm2, 5 h

In order of falling “Protection time PE%” value:
1. CC(C)=CCCC1(C)OCC(CO)O1 (mixture of isomers) [8a]  99.39%
2. CCCC1(CCC)OCC(C)(CO)CO1 [7b]  98.42%
3. CC(C)CC1(CC(C)C)OCC(CO)O1 (racemic) [17a]  98.39%
4. CCC1(CO)COC(CC(C)C)(CC(C)C)OC1 [17c]  98.08%
5. CCCCCCCC1OCC(C)(CO)CO1 (mixture of isomers) [9b]  97.67%
6. CCCCC(CC)C1OCC(CO)O1 (mixture of isomers) [10a]  97.5%
7. CCCCCCCCC1OCC(CO)O1 (mixture of isomers) [13a]  97.22%
8. CCCCCC1(CC)OCC(CO)O1 (mixture of isomers) [11a]  93.19%
9. CCCC1(CCC)OCC(CC)(CO)CO1 [7c]  91.72%

Same assay, conditions: 0.17mg/cm2, 6 h

In order of falling “Protection time PE%” value:
1. CC(C)=CCCC1(C)OCC(CO)O1 (mixture of isomers) [8a]  100%
2. CCCCC(CC)C1OCC(CO)O1 (mixture of isomers) [10a]  100%
3. CCCCCCCCC1OCC(CO)O1 (mixture of isomers) [13a]  99.06%
4. CCC1(CO)COC(CC(C)C)(CC(C)C)OC1 [17c]  98.53%
5. CCCC1(CCC)OCC(CC)(CO)CO1 [7c]  97.22%
6. CCCCCCCC1OCC(C)(CO)CO1 (mixture of isomers) [9b]  93.8%
7. CC(C)CC1(CC(C)C)OCC(CO)O1 (racemic) [17a]  92.05%
8. CCCC1(CCC)OCC(C)(CO)CO1 [7b]  84.33%
9. CCCCCC1(CC)OCC(CO)O1 (mixture of isomers) [11a]  72.96%

Same assay, conditions: 0.17mg/cm2, 7 h

In order of falling “Protection time PE%” value:
1. CCC1(CO)COC(CC(C)C)(CC(C)C)OC1 [17c]  100%
2. CC(C)=CCCC1(C)OCC(CO)O1 (mixture of isomers) [8a]  97.44%
3. CCCCCCCCC1OCC(CO)O1 (mixture of isomers) [13a]  96.82%
4. CCCCCCCC1OCC(C)(CO)CO1 (mixture of isomers) [9b]  96.63%
5. CCCC1(CCC)OCC(CC)(CO)CO1 [7c]  94.29%
6. CC(C)CC1(CC(C)C)OCC(CO)O1 (racemic) [17a]  74.4%
7. CCCCC(CC)C1OCC(CO)O1 (mixture of isomers) [10a]  63.17%

Same assay, conditions: 0.17mg/cm2, 8 h

In order of rising “Protection time PE%” value:
1. CC(C)CC1(CC(C)C)OCC(CO)O1 (racemic) [17a]  43.92%
2. CCCCCCCCC1OCC(CO)O1 (mixture of isomers) [13a]  82.75%
3. CC(C)=CCCC1(C)OCC(CO)O1 (mixture of isomers) [8a]  84.95%
4. CCCCCCCC1OCC(C)(CO)CO1 (mixture of isomers) [9b]  91.73%
5. CCCC1(CCC)OCC(CC)(CO)CO1 [7c]  94.44%
6. CCC1(CO)COC(CC(C)C)(CC(C)C)OC1 [17c]  100%

Same assay, conditions: Aedes albopictus, topical; 0.17mg/cm2, 1 h; read-out: Protection time PE%

`CC1(CO)COC2(CCCCCCC2)OC1` [12b] showed a pest or weed control at 0.17 mg/cm2, 0.17 mg/cm2 of 100%.

Same assay, conditions: Aedes albopictus, topical; 0.17mg/cm2, 2 h; read-out: Protection time PE%

Work on `CC1(CO)COC2(CCCCCCC2)OC1` [12b] yielded a pest or weed control at 0.17 mg/cm2, 0.17 mg/cm2 of 99.5%.

Same assay, conditions: Aedes albopictus, topical; 0.17mg/cm2, 3 h; read-out: Protection time PE%

For `CC1(CO)COC2(CCCCCCC2)OC1` [12b], the pest or weed control at 0.17 mg/cm2, 0.17 mg/cm2 was 98.7%.

Same assay, conditions: Aedes albopictus, topical; 0.17mg/cm2, 4 h; read-out: Protection time PE%

In the case of `CC1(CO)COC2(CCCCCCC2)OC1` [12b], the pest or weed control at 0.17 mg/cm2, 0.17 mg/cm2 is reported as 97.8%.

Same assay, conditions: Aedes albopictus, topical; 0.17mg/cm2, 5 h; read-out: Protection time PE%

Work on `CC1(CO)COC2(CCCCCCC2)OC1` [12b] yielded a pest or weed control at 0.17 mg/cm2, 0.17 mg/cm2 of 97.2%.

Same assay, conditions: Aedes albopictus, topical; 0.17mg/cm2, 6 h; read-out: Protection time PE%

With `CC1(CO)COC2(CCCCCCC2)OC1` [12b] the pest or weed control at 0.17 mg/cm2, 0.17 mg/cm2 was 93.8%.

Same assay, conditions: Aedes albopictus, topical; 0.17mg/cm2, 7 h; read-out: Protection time PE%

With `CC1(CO)COC2(CCCCCCC2)OC1` [12b] the pest or weed control at 0.17 mg/cm2, 0.17 mg/cm2 was 98.2%.

Same assay, conditions: Aedes albopictus, topical; 0.17mg/cm2, 8 h; read-out: Protection time PE%

Compound `CC1(CO)COC2(CCCCCCC2)OC1` [12b] has a pest or weed control at 0.17 mg/cm2, 0.17 mg/cm2 of 94.9%.

Same assay, conditions: against A. albopictus

In the case of `CCCCCCCCCC1OCC(O)CO1` (stereo not drawn) [trans-18a.6], the “repellent activity, in words” value is reported as “inactive as a repellent”.
For `CC1(CO)COC(C)(C)OC1` [5b], the “repellent activity, in words” value was “lack of activity”.

Same assay, conditions: at the dose of 0.17mg/cm2

In order of falling “Average PT >95% (% coefficient of variation)” value:
1. CC(C)c1ccc(C2OCC(CO)O2)cc1 (mixture of isomers) [21a]  0 min
2. CCCCCCCCCCCC1OCC(CO)O1 (mixture of isomers) [24a]  0 min
3. OCC1COC2(CCCCCCCCCCC2)O1 (racemic) [25a]  0 min
4. CC1(CCc2ccccc2)OCC(CO)O1 (mixture of isomers) [20a]  0 min
5. CC1(CO)COC(C)(C)OC1 [5b]  0 min
6. CC(C)(C)C1CCC2(CC1)OCC(CO)O2 (mixture of isomers) [19a]  0 min

With `CCC1(CO)COC(CC(C)C)(CC(C)C)OC1` [17c] the “Average PT >95% (% coefficient of variation)” value was 480 (0) min.
In the case of `CCCC1(CCC)OCC(C)(CO)CO1` [7b], the “Average PT >95% (% coefficient of variation)” value is reported as 300 (1.4) min.
For `CCCC1(CCC)OCC(CC)(CO)CO1` [7c], the “Average PT >95% (% coefficient of variation)” value was 360 (3.3) min.
In the case of `CCCCCCCC1OCC(C)(CO)CO1` (mixture of isomers) [9b], the “Average PT >95% (% coefficient of variation)” value is reported as 420 (5.6) min.
With `CC1(CO)COC2(CCCCCCC2)OC1` [12b] the “Average PT >95% (% coefficient of variation)” value was 420 (3.1) min.
For `CCCCCC1(CC)OCC(CO)O1` (mixture of isomers) [11a], the “Average PT >95% (% coefficient of variation)” value was 240 (3.8) min.
For `CCCCC(CC)C1OCC(CO)O1` (mixture of isomers) [10a], the “Average PT >95% (% coefficient of variation)” value was 360 (56.8) min.
With `CC(C)CC1(CC(C)C)OCC(CO)O1` (racemic) [17a] the “Average PT >95% (% coefficient of variation)” value was 300 (2.3) min.
`CCCCCCCCC1OCC(CO)O1` (mixture of isomers) [13a] was tested, and the “Average PT >95% (% coefficient of variation)” value was 420 (4.7) min.

Same assay, conditions: at the dose of 0.17mg/cm2; Kaplan–Meier estimate

In order of rising “Estimated 100% PT (complete protection time, mean±SE)” value:
1. CCCC1(CCC)OCC(CC)(CO)CO1 [7c]  60 ± 34 min
2. CCCCCCCC1OCC(C)(CO)CO1 (mixture of isomers) [9b]  120 ± 105 min
3. CCCC1(CCC)OCC(C)(CO)CO1 [7b]  220 ± 87 min
4. CC1(CO)COC2(CCCCCCC2)OC1 [12b]  240 ± 60 min
5. CCCCCCCCC1OCC(CO)O1 (mixture of isomers) [13a]  270 ± 77 min
6. CCCCCC1(CC)OCC(CO)O1 (mixture of isomers) [11a]  345 ± 66 min

Same assay, conditions: dose of 0.17 mg/cm^2; tests ended after 8 h

In order of rising “Protection time (95% protection)” value:
1. CC1(CO)COC2(CCCCCCC2)OC1 [12b]  7 h
2. CCC1(CO)COC(CC(C)C)(CC(C)C)OC1 [17c]  8 h

From PMC9896555, “Cyclic Acetals as Novel Long-Lasting Mosquito Repellents” (Journal of Agricultural and Food Chemistry, 2023)
